Reference: ChEMBL document CHEMBL5370560, “Isolation of Anti-SARS-CoV-2 Natural Products Extracted from Mentha canadensis and the Semi-synthesis of Antiviral Derivatives” (J Nat Prod, 2023)
≈ marks a conversion by molar mass, not a printed value.

System: SARS-CoV-2
Assay: Antiviral activity against SARS-CoV-2 hCoV-19/Egypt/NRC-03/2020 infected in Vero E6 cells assessed as reduction in plaque formation pretreated with cells for 1 hr followed by viral infection for 1 hr with subsequent replacement of compound containing medium and measured after 3 to 4 days by crystal violet staining based analysis
Assay type: functional, organism-based
Settings: Severe acute respiratory syndrome coronavirus 2, hCoV-19/Egypt/NRC-03/2020, Vero C1008

O=C(/C=C/c1ccc(O)c(O)c1)O[C@H](Cc1ccc(O)c(O)c1)C(=O)O [ROSMARINIC ACID]
IC50: 0.0255 µg/mL (≈ 0.0707 µM)
